Data from patent US9556242B2, “Method for regulating circadian rhythms” (ANYGEN CO., LTD., priority 2011, dated 2017).
“Also recorded” adds a separate entry of the source.

Test system: per2 promoter
Experiment: Per2-luciferase activity in cultured mouse brain sections including SCN after NQ peptide treatment
Format: cell-based
Settings: for phase-advance effect on Per2 circadian activity: NQ peptide forms and mutants treated to incubated brain section including SCN (FIG. 15); for effects in the Per2 phase advance or delay: 100 nM for 4 hours; for phase changes / activity period of per2 promoter: treated at the highest point of per2 activity; for phase changes / activity period of per2 promoter / free-running period after treatment: 5 μM (FIG. 12); for free-running period after treatment: treated at the lowest point of per2 activity
Method: Animals used in this experiment were transgenic mice in which the construct inserted Luciferase gene behind per2 promoter was knocked-in. The mice were sacrificed. The brain was speedily isolated and sectioned in a thickness of 400 μm including SCN. The mouse brain tissue sections were incubated in media containing 1% penicillin/streptomycin antibiotics, 25% Horse Serum, 25% Hank's Buffered Salt Solution (HBSS), 50% Minimum Essential Medium (MEM) and 0.3 mM luciferin. At 5 days after the incubation, the synthetic NQ peptides were treated with 5 μM of final concentration. Then, luciferase activity derived from changes of per2 promoter activities was observed.
The NQ peptides were treated with 100 nM of the concentration at 2, 6, 10, 14, 20 and 22 hours after the peak in Per2 activity with the 24-hour intervals wave. The treatment was maintained 4 hours. Then, the media were changed.
The NQ peptides were treated with 2 nM, 20 nM, 200 nM and 2000 nM of the concentrations for 4 hours to the sections at 10 hours after the peak in Per2 activity. Then, the media were changed to the original media (50% minimum essential medium, 25% gey's balanced salt solution, 25% horse serum, 36 mM glucose, and 100 units/ml aerosolized antibiotics) containing 0.3 mM luciferin to limit drug duration of the NQ peptide.
To achieve this, the present inventors have synthesized mutants: deletion mutant sequencing from first Asn to tenth Leu among the amino acid sequences as set forth in SEQ ID NO:2; optical isomer mutant 1 in which the second Trp residue is modified to D-form Trp; and optical isomer mutant 2 in which the eleventh Lys residue is modified to D-form Lys.
The NQ peptide as set forth in SEQ ID NO:2 or 3, or the NQ peptide mutants were respectively treated to the incubated brain section including SCN. Particularly, the NQ peptide as set forth in SEQ ID NO:2 found in humans and mouse was simultaneously treated with the a-NQ-S antibody as neutralization substance to elucidate those specific effects with more accuracy. […] Therefore, it could be understood that the carboxyl-terminus sequencing from the eleventh Lys residue to Gln as well as the second Trp residue and the eleventh Lys residue in the amino acid sequence of NQ peptide as set forth in SEQ ID NO:2 are very important in physiological activity.

| effects in the Per2 phase advance or delay (treated at 2 hours after the peak in Per2 activity (FIG. 13)) | effects in the Per2 phase advance or delay (treated at 6 hours after the peak in Per2 activity (FIG. 13)) | effects in the Per2 phase advance or delay (treated at 10 hours after the peak in Per2 activity (FIG. 13)) | effects in the Per2 phase advance or delay (treated at 14 hours after the peak in Per2 activity (FIG. 13)) | effects in the Per2 phase advance or delay (treated at 20 hours after the peak in Per2 activity (FIG. 13)) | highest effect time (after peak in Per2 activity) (100 nM, phase-dependent treatment (FIG. 13)) | concentration range in which Per2 expression period was advanced proportionally (4 hours treatment at 10 hours after the peak in Per2 activity (FIG. 14)) | free-running period advanced by (synthetic NQ peptide treated at the lowest point in Per2 phase, mouse brain section (FIG. 12)) | phase changes / activity period of per2 promoter | phase changes / activity period of per2 promoter (listed as synthetic NQ peptide) | highest concentration of the NQ peptide (phase-advance effect) (treated at the lowest point in Per2 phase (FIG. 14)) | free-running period after treatment | free-running period after treatment (listed as synthetic NQ peptide) | activity period of per2 promoter (treated at the point in which per2 shows the highest activity, 5 μM) | Substance | phase-advance effect on Per2 circadian activity | effects in the Per2 phase advance or delay (treated at 22 hours after the peak in Per2 activity (FIG. 13)) | dose dependence of Per2 phase-advance effect (2, 20, 200, 2000 nM for 4 hours at 10 hours after the peak (lowest point) in Per2 activity (FIG. 14)) | phase-advance effect on Per2 circadian activity (listed as NQ peptide as set forth in SEQ ID NO:2) |
| --- | --- | --- | --- | --- | --- | --- | --- | --- | --- | --- | --- | --- | --- | --- | --- | --- | --- | --- |
|  |  |  |  |  |  |  |  |  |  |  |  |  |  | NQ peptide as set forth in SEQ ID NO:3: form of the NQ peptide found in rat; His residue at the carboxyl-terminus instead of the amide group (NWTPQAMLYLKGAQGH; NQ Peptide 3) | caused the advance effects in circadian activity; also recorded: changed the Per2 phase; also recorded: showed phase-advance effects of Per2 |  |  |  |
| negligible or barely shown | negligible or barely shown | significantly advanced | significantly advanced | significantly advanced | 10 h | 20 to 200 nM | approximately 2.80 hours | not changed | negligible or barely shown | 200 nM | approximately 22.3 hours | approximately 22.87 hours | approximately 24 hours | NWTPQAMLYLKGAQ-NH2 [NQ peptide] |  | negligible or barely shown; also recorded: negligible | advanced proportionally to the concentration; also recorded: dose-dependent manner | caused the advance effects in circadian activity; also recorded: changed the Per2 phase; also recorded: showed phase-advance effects of Per2 |
